Measured values as given in US20250115591A1, “NOVEL SULFONAMIDE CARBOXAMIDE COMPOUNDS” (INFLAZOME LIMITED, priority 2017, published 2025).
Counter-ions that a name gives are not always drawn.

Assays:
[1] = molecular target: T1, NLRP3 (Homo sapiens (Human), UniProt Q96P20); test: THP-1 cells pyroptosis assay (LPS + nigericin, resazurin read-out); type: cell-based; conditions: 1 μg/ml LPS, 5 μM nigericin
In short: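 LPS-primed (1 μg/ml) human THP-1 cells in serum-free RPMI were exposed to compound (8-point half-log series, top dose as printed "10M") for 3 h at 37 °C, then to nigericin 5 μM for 1 h. Remaining viability was read by resazurin (100 μM, 1-2 h) fluorescence, and IC50 came from 4-parameter variable-slope regression.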

[2] = molecular target: T1, NLRP3; test: Human whole blood IL1β release assay (LPS + nigericin); type: cell-based
Description: For systemic delivery, the ability to inhibit NLRP3 when the compounds are present within the bloodstream is of great importance. For this reason, the NLRP3 inhibitory activity of a number of compounds in human whole blood was investigated in accordance with the following protocol.
Human whole blood in Li-heparin tubes was obtained from healthy donors from a volunteer donor panel. • 1. Plate out 80 μl of whole blood containing 1 μg/ml of LPS in 96-well, clear bottom cell culture plate (Corning #3585) • 2. Add 10 μl compound (8 points half-log dilution with 10 μM top dose) or vehicle (DMSO 0.1% FAC) to the appropriate wells • 3. Incubate for 3 hrs at 37° C., 5% CO2 • 4. Add 10 μl nigericin (Sigma #N7143) ([…]) to all wells • 5. Incubate for 1 hr at 37° C., 5% CO2 • 6. At the end of the incubation period, spin plates at 30×g for 5 mins to pellet cells and remove 20 μl of supernatant and add to 96-well v-bottom plates for IL-1β analysis (note: these plates containing the supernatants can be stored at −80° C. to be analysed at a later date) • 7. IL-1β was measured according to the manufacturer protocol (Perkin Elmer-AlphaLisa IL-Kit A[220F-5000) • 8. IC50 data is fitted to a non-linear regression equation (log inhibitor vs response-variable slope 4-parameters)

[3] = PK, intravenous administration; type: in vivo, male Sprague Dawley rats; conditions: male, Sprague Dawley, plasma, rat, intravenous, dose 1 mg/kg; for AUC: read-out: AUC; for clearance: read-out: Cl; for half-life: read-out: T1/2 (converted); for Vd: read-out: Vdss
Description: Pharmacokinetic parameters were determined in male Sprague Dawley rats (Charles River, UK, 250-300 g; or Vital River Laboratory Animal Technology Co Ltd, Beijing, China, 7-9 weeks old). Animals were individually housed during the study and maintained under a 12 h light/dark cycle. Animals had free access to food and water except that orally dosed animals were food deprived overnight prior to the study. For intravenous administration, compounds were formulated as a solution in water or DMSO:PBS [10:90] in 2 mL/kg dosing volume and administered via tail vein. For oral administration, compounds were formulated as a solution in water or DMSO:water [10:90] in 5 mL/kg dosing volume and administered orally. Serial blood samples (about 120-300 μL) were taken from each animal at each of 8 time-points post dose (0.083, 0.25, 0.5, 1, 2, 4, 8 and 24 h). Samples were held on ice for no longer than 30 minutes before centrifugation (10,000 rpm (8,385 g) for 3 minutes; or 5,696 rpm (3,000 g) for 15 minutes) for plasma generation. Plasma was frozen on dry ice prior to bioanalysis. PK parameters were generated from LC-MS/MS data using Dotmatics or Phoenix WinNonlin 6.3 software.

[4] = human whole blood, 1 μg/ml LPS, nigericin, IL-1β release, read-out: HWB IC50

T1 sequence (Q96P20 whole entry): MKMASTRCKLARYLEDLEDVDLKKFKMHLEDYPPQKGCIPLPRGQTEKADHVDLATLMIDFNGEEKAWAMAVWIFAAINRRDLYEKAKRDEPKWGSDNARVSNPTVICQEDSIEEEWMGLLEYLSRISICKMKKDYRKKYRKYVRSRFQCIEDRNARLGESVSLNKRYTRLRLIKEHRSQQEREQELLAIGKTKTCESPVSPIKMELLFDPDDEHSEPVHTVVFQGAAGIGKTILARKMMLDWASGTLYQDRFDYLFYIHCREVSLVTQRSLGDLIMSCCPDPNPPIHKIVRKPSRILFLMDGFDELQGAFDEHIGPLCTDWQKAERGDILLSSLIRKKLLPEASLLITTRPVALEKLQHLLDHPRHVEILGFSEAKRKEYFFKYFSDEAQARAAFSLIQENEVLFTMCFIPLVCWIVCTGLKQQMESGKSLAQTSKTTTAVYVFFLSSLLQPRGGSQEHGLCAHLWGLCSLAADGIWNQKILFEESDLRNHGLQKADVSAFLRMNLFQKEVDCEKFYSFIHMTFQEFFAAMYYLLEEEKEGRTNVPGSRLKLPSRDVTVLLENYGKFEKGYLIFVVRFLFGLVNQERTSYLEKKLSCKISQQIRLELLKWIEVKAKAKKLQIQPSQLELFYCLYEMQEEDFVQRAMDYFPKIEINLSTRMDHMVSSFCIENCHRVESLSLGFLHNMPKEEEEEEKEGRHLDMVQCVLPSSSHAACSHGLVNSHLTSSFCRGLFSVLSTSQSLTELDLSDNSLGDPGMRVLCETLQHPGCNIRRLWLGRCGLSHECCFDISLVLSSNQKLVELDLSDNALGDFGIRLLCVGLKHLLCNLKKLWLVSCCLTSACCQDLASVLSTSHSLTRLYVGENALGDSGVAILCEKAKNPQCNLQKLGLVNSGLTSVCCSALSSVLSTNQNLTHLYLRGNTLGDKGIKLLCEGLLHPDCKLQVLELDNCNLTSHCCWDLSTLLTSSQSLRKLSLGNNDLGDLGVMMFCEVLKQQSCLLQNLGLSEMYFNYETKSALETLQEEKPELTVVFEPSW

IC50 [2, 4] [nM] | SMILES | IC50 [1] [nM] | further results
1000 to 10000 | C#CCN1CCC(S(=O)(=O)NC(=O)Nc2c3c(cc4c2CCC4)CCC3)CC1 [Example 2, N-((1,2,3,5,6,7-Hexahydro-s-indacen-4-yl)carbamoyl)-1-(prop-2-yn-1-yl)piperidine-4-sulfonamide, potassium salt] | 1000 to 10000 | –
1000 to 10000 | O=C(Nc1c2c(cc3c1CCC3)CCC2)NS(=O)(=O)C1CCNCC1 [Example 4, N-((1,2,3,5,6,7-Hexahydro-s-indacen-4-yl)carbamoyl)-piperidine-4-sulfonamide, potassium salt] | 1000 to 10000 | –
1000 to 10000 | CC(C)NC(=O)N1CCC(S(=O)(=O)NC(=O)Nc2c3c(cc4c2CCC4)CCC3)CC1 [Example 5, 4-(N-((1,2,3,5,6,7-Hexahydro-s-indacen-4-yl)carbamoyl)sulfamoyl)-N-isopropylpiperidine-1-carboxamide, potassium salt] | < 1000 | –
< 1000 | O=C(Nc1c2c(cc3c1CCC3)CCC2)NS(=O)(=O)C1CCN(C(=O)C(F)(F)F)CC1 [Example 8, N-((1,2,3,5,6,7-Hexahydro-s-indacen-4-yl)carbamoyl)-1-(2,2,2-trifluoroacetyl)piperidine-4-sulfonamide, potassium salt] | 1000 to 10000 | –
1000 to 10000 | O=C(Nc1c2c(cc3c1CCC3)CCC2)NS(=O)(=O)C1CCN(C2CC2)C1 (stereo not drawn) [Example 39, 1-Cyclopropyl-N-((1,2,3,5,6,7-hexahydro-s-indacen-4-yl)carbamoyl)pyrrolidine-3-sulfonamide, potassium salt] | < 1000 | –
< 1000 | CN1CC(S(=O)(=O)NC(=O)Nc2c3c(cc4c2CCC4)CCC3)C1 [Example 49, N-((1,2,3,5,6,7-Hexahydro-s-indacen-4-yl)carbamoyl)-1-methylazetidine-3-sulfonamide, potassium salt] | < 1000 | –
< 1000 | CCN1CC(S(=O)(=O)NC(=O)Nc2c3c(cc4c2CCC4)CCC3)C1 [Example 53, 1-Ethyl-N-((1,2,3,5,6,7-hexahydro-s-indacen-4-yl)carbamoyl) azetidine-3-sulfonamide, potassium salt] | < 1000 | –
1000 to 10000 | O=C(Nc1c2c(cc3c1CCC3)CCC2)NS(=O)(=O)C1CN(Cc2ccccc2)C1 [Example 72, 1-Benzyl-N-((1,2,3,5,6,7-hexahydro-s-indacen-4-yl)carbamoyl) azetidine-3-sulfonamide, potassium salt] | – | –
– | O=C(Nc1c2c(cc3c1CCC3)CCC2)NS(=O)(=O)C1CN(CCCl)C1 [Example 92, 1-(2-Chloroethyl)-N-((1,2,3,5,6,7-hexahydro-s-indacen-4-yl)carbamoyl)azetidine-3-sulfonamide, potassium salt] | – | IC50 [2]: 1000 to 10000 nM
1000 to 10000 | [N-]=[N+]=NCCN1CC(S(=O)(=O)NC(=O)Nc2c3c(cc4c2CCC4)CCC3)C1 [Example 95, 1-(2-Azidoethyl)-N-((1,2,3,5,6,7-hexahydro-s-indacen-4-yl)carbamoyl)azetidine-3-sulfonamide, potassium salt] | – | –
– | O=C(Nc1c2c(cc3c1CCC3)CCC2)NS(=O)(=O)C1CN(C2CCCC2)C1 [Example 99, 1-Cyclopentyl-N-((1,2,3,5,6,7-hexahydro-s-indacen-4-yl)carbamoyl)azetidine-3-sulfonamide, potassium salt] | – | AUC [3]: 1670 ng·h/mL; clearance [3]: 10 mL/min/kg; half-life [3]: 36 min; Vd [3]: 0.42 L/kg
1000 to 10000 | O=C(Nc1c2c(cc3c1CCC3)CCC2)NS(=O)(=O)C1CN(Cc2cncnc2)C1 [Example 125, N-((1,2,3,5,6,7-Hexahydro-s-indacen-4-yl)carbamoyl)-1-(pyrimidin-S-ylmethyl)azetidine-3-sulfonamide, potassium salt] | – | –
– | COc1cc(-c2ccc3c(c2NC(=O)NS(=O)(=O)c2cn(C(C)C)c(=O)cn2)CCC3)ccn1 [Example 156, 4-Isopropyl-N-((5-(2-methoxypyridin-4-yl)-2,3-dihydro-11H-inden-4-yl)carbamoyl)-S-oxo-4,5-dihydropyrazine-2-sulfonamide] | – | AUC [3]: 1520 ng·h/mL; clearance [3]: 11 mL/min/kg; half-life [3]: 60 min; Vd [3]: 0.31 L/kg
1000 to 10000 | CCN1CCC(S(=O)(=O)NC(=O)Nc2c3c(cc4c2CCC4)CC=C3)CC1 [Example 189, 1-Ethyl-N-((1,2,3,7-tetrahydro-s-indacen-4-yl)carbamoyl) piperidine-4-sulfonamide, potassium salt] | – | –

SMILES | IC50 [2, 4] [nM] | IC50 [1] [nM] | further results
O=C(Nc1c2c(cc3c1CCC3)CCC2)NS(=O)(=O)C1CCN(C(=O)C2CC2)CC1 [Example 7, 1-(Cyclopropanecarbonyl)-N-((1,2,3,5,6,7-hexahydro-s-indacen-4-yl)carbamoyl)piperidine-4-sulfonamide, potassium salt] | 1000 to 10000 | < 1000 | –
COC(=O)N1CCC(S(=O)(=O)NC(=O)Nc2c3c(cc4c2CCC4)CCC3)CC1 [Example 13, Methyl 4-(N-((1,2,3,5,6,7-hexahydro-s-indacen-4-yl)carbamoyl)sulfamoyl)piperidine-1-carboxylate, potassium salt] | > 10000 | < 1000 | –
CCN1CC(N2CCC(S(=O)(=O)NC(=O)Nc3c4c(cc5c3CCC5)CCC4)CC2)C1 [Example 24, 1-(1-Ethylazetidin-3-yl)-N-((1,2,3,5,6,7-hexahydro-s-indacen-4-yl)carbamoyl)piperidine-4-sulfonamide, potassium salt] | < 1000 | < 1000 | –
CCC(=O)N1CCCC(S(=O)(=O)NC(=O)Nc2c3c(cc4c2CCC4)CCC3)C1 (stereo not drawn) [Example 32, N-((1,2,3,5,6,7-Hexahydro-s-indacen-4-yl)carbamoyl)-1-propionylpiperidine-3-sulfonamide, potassium salt] | 1000 to 10000 | 1000 to 10000 | –
O=C(Nc1c2c(cc3c1CCC3)CCC2)NS(=O)(=O)C1CCCN(CCF)C1 (stereo not drawn) [Example 34, 1-(2-Fluoroethyl)-N-((1,2,3,5,6,7-hexahydro-s-indacen-4-yl)carbamoyl)piperidine-3-sulfonamide, potassium salt] | 1000 to 10000 | < 1000 | –
O=C(Nc1c2c(cc3c1CCC3)CCC2)NS(=O)(=O)C1CNc2ccccc2C1 (stereo not drawn) [Example 35, N-((1,2,3,5,6,7-Hexahydro-s-indacen-4-yl)carbamoyl)-1,2,3,4-tetrahydroquinoline-3-sulfonamide, potassium salt] | > 10000 | < 1000 | –
CCC(CC)N1CC(S(=O)(=O)NC(=O)Nc2c3c(cc4c2CCC4)CCC3)C1 [Example 65, N-((1,2,3,5,6,7-Hexahydro-s-indacen-4-yl)carbamoyl)-1-(pentan-3-yl)azetidine-3-sulfonamide, potassium salt] | < 1000 | < 1000 | –
O=C(Nc1c2c(cc3c1CCC3)CCC2)NS(=O)(=O)C1CN(C(=O)OCc2ccccc2)C1 [Example 71, Benzyl 3-(N-((1,2,3,5,6,7-hexahydro-s-indacen-4-yl)carbamoyl)sulfamoyl)azetidine-1-carboxylate, potassium salt] | > 10000 | < 1000 | –
O=C(Nc1c2c(cc3c1CCC3)CCC2)NS(=O)(=O)C1CN(C2CCOCC2)C1 [Example 75, N-((1,2,3,5,6,7-Hexahydro-s-indacen-4-yl)carbamoyl)-1-(tetrahydro-2H-pyran-4-yl)azetidine-3-sulfonamide, potassium salt] | < 1000 | < 1000 | –
